Laboratory results from patent US20240368239A1, “Novel bispecific protein and use thereof” (SL METAGEN, priority 2020, published 2024).

Test system: B6 normal mice
Experiment: Fluorescence spectrometry tissue distribution of Cy5.5-labelled substances
Assay type: in vivo
Conditions: 24 hours after administration, Cy5.5 label
Description: Next, the present inventors performed an experiment in B6 normal mice in order to observe the distribution in each tissue and organ according to the administration of a bispecific fusion protein according to an embodiment of the present invention. Cy5.5 was used as a fluorophore for tracking the distribution after administration of each substance. Buffer exchange was performed for each substance to be administered, MG12-1, MG12-4, and GLP-1Fc homodimer with boric acid buffer (pH 8.5), and with reference to the protocol of the Cy5.5 labeling kit (GE, #PA15605) were allowed to react with an appropriate amount of Cy5.5 overnight under refrigeration conditions. Unreacted Cy5.5 in the reaction-completed substance was removed through the PBS substitution process, and whether Cy5.5 was reacted well was confirmed through the final SDS-PAGE. Each administered substance was diluted with 10% DMSO/PBS to have the same fluorescence intensity using an ELISA plate reader capable of measuring fluorescence intensity before being administered.

Cy5.5 [reference compound]
0: Average fluorescence intensity, Brain | Average fluorescence intensity, Large intestine | Average fluorescence intensity, Small intestine
